Measurements taken from patent US20250179045A1, “LPAR1 ANTAGONISTS AND USES THEREOF” (Contineum Therapeutics, Inc., priority 2021, published 2025).

Each compound was assayed against human LPA1 (Homo sapiens, UniProt Q92633) (assay: In vitro functional assay of lysophosphatidic acid receptor 1 activity (calcium flux)). Conditions: B103 cells stably expressing human LPA1; Fluo-4 NW calcium flux after lysophosphatidic acid (18:1) at EC80; compounds 100 pM to 10 μM; read-out: LPA1 IC50.
Assay type: cell-based
How it was run: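 B103 cells stably expressing human LPA1 plated onto compound for 24 h at 37 °C, loaded with Fluo-4 NW dye, re-exposed to compound (30 min 37 °C plus 30 min room temp).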

human LPA1, sequence (Q92633 whole entry): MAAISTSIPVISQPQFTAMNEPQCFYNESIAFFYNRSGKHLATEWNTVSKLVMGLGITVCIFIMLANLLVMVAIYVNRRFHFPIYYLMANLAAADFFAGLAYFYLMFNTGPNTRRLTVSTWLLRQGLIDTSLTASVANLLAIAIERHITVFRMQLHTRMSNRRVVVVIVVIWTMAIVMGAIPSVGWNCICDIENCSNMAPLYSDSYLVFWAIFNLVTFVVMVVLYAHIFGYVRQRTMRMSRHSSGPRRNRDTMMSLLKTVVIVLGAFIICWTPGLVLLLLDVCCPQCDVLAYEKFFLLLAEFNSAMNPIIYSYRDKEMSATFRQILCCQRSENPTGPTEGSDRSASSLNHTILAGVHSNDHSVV

Compound | IC50 [nM]
Cc1ccc(NC(=O)C2(c3ccccc3C(C)C)CC(CC(=O)N(C)C)C2)c(OC(F)F)n1 (stereo not shown) [Example 67, N-(2-(difluoromethoxy)-6-methylpyridin-3-yl)-3-(2-(dimethylamino)-2-oxoethyl)-1-(2-isopropylphenyl)cyclobutane-1-carboxamide] | 100 to 1000
COc1ccc(NC(=O)[C@]2(c3ccccc3C(C)C)C[C@@H](Cc3nnn[nH]3)C2)c(OC(F)F)n1 [Example 120, trans-3-((1H-tetrazol-5-yl)methyl)-N-(2-(difluoromethoxy)-6-methoxypyridin-3-yl)-1-(2-isopropylphenyl)cyclobutane-1-carboxamide] | < 10
Cc1ccc(NC(=O)C2(c3ccccc3C(C)C)CC(CCO)C2)c(OC(F)F)n1 (mixture of isomers) [Example 49, N-(2-(difluoromethoxy)-6-methylpyridin-3-yl)-3-(2-hydroxyethyl)-1-(2-isopropylphenyl)cyclobutane-1-carboxamide] | 10 to 100
Cc1ccc(NC(=O)C2(c3ccccc3C(C)C)CC(CO)C2)c(OC(F)F)n1 (stereo not shown) [Example 59, N-(2-(difluoromethoxy)-6-methylpyridin-3-yl)-3-(hydroxymethyl)-1-(2-isopropylphenyl)cyclobutane-1-carboxamide] | 10 to 100
COc1cc(OC(F)F)c(NC(=O)C2(c3ccccc3C(C)C)COC2)cn1 [Example 25, N-(4-(difluoromethoxy)-6-methoxypyridin-3-yl)-3-(2-isopropylphenyl)oxetane-3-carboxamide] | 100 to 1000
Cc1ccc(NC(=O)C2(c3ncccc3C(C)C)CC(O)C2)c(OC(F)F)n1 (mixture of isomers) [Example 57, N-(2-(difluoromethoxy)-6-methylpyridin-3-yl)-3-hydroxy-1-(3-isopropylpyridin-2-yl)cyclobutane-1-carboxamide] | 10 to 100
CC(C)c1ccccc1C1(C(=O)Nc2ccc(Br)cc2OC(F)F)CNC(=O)C1 (stereo not shown) [Example 105, N-(4-bromo-2-(difluoromethoxy)phenyl)-3-(2-isopropylphenyl)-5-oxopyrrolidine-3-carboxamide] | 10 to 100
COc1ccc(NC(=O)C2(c3ccccc3C(C)C)CCC(C)(O)CC2)c(OC(F)F)n1 (single isomer, unassigned) [Example 83-isomer B, N-(2-(difluoromethoxy)-6-methoxypyridin-3-yl)-4-hydroxy-1-(2-isopropylphenyl)-4-methylcyclohexane-1-carboxamide] | 10 to 100
COc1cc(OC(F)F)c(NC(=O)C2(c3ccccc3C(C)C)CC(=O)N(C)C2)cn1 (stereo not shown) [Example 5, N-(4-(difluoromethoxy)-6-methoxypyridin-3-yl)-3-(2-isopropylphenyl)-1-methyl-5-oxopyrrolidine-3-carboxamide] | > 1000
Cc1ccc(NC(=O)C2(c3ccccc3C(C)C)CC(Cc3nnn[nH]3)C2)c(OC(F)F)n1 (mixture of isomers) [Example 112, 3-((1H-tetrazol-5-yl)methyl)-N-(2-(difluoromethoxy)-6-methylpyridin-3-yl)-1-(2-isopropylphenyl)cyclobutane-1-carboxamide] | 10 to 100
Cc1ccc(NC(=O)C2(c3ccccc3C(C)C)CC(N3CC(O)C3)C2)c(OC(F)F)n1 (stereo not shown) [Example 42, N-(2-(difluoromethoxy)-6-methylpyridin-3-yl)-3-(3-hydroxyazetidin-1-yl)-1-(2-isopropylphenyl)cyclobutane-1-carboxamide] | 100 to 1000
COc1ccc(NC(=O)[C@]2(c3ccccc3C(C)C)C[C@H](Cc3nnn[nH]3)C2)c(OC(F)F)n1 [Example 119, cis-3-((1H-tetrazol-5-yl)methyl)-N-(2-(difluoromethoxy)-6-methoxypyridin-3-yl)-1-(2-isopropylphenyl)cyclobutane-1-carboxamide] | 10 to 100

Same assay, conditions: LPA1 IC50, B103 cells stably expressing human LPA1; Fluo-4 NW calcium flux after lysophosphatidic acid (18:1) at EC80; compounds 100 pM to 10 μM

Compound | IC50 [nM]
COc1ccc(NC(=O)C2(c3ccccc3C(C)C)CCNC(=O)C2)c(OC(F)F)n1 (stereo not shown) [Example 116, N-(2-(difluoromethoxy)-6-methoxypyridin-3-yl)-4-(2-isopropylphenyl)-2-oxopiperidine-4-carboxamide] | 100 to 1000
